In US20080249042A1, “All-Trans-Retinol: All-Trans-13,14-Dihydroretinol Saturase and Methods of Its Use” (UNIVERSITY OF WASHINGTON, priority 2004, published 2008):
Where two headings read alike, the source gives them in different places. One block for each compound: values may come before it.

Columns and labels:
[1] = Liver retinoids of Lrat-/- mice 3 h after gavage with all-trans-ROL palmitate; format: in vivo, mouse; details: Lrat−/− (LRAT-deficient knockout), mouse, liver, oral, Lrat-/- mice, liver, 3 hr post-gavage, read-out: Level of liver retinoids 3 hr following gavage with ROL palmitate
Excerpt: (§1) Metabolism of Retinoids in Vivo. All animal experiments employed procedures approved by the University of Washington and conformed to recommendations of the American Veterinary Medical Association Panel on Euthanasia and recommendations of the Association of Research for Vision and Ophthalmology. Animals were maintained on a 12-h light and 12-h dark cycle. All manipulations were done under dim red or infrared light (>560 nm). Most experiments used 6-12-week-old mice. Lrat−/− mice were genotyped as described previously. Batten, et al. J. Biol. Chem. 279:10422-10432, 2004. Animals were maintained on a control chow diet up to 1 h prior to oral gavage. The appropriate amount of all-trans-ROL palmitate, all-trans-DROL, or all-trans-RA was dissolved in vegetable oil and administered by oral gavage 3 h prior to analysis.
Analysis of Retinoids. Liver (1 g) from retinoid gavaged or naive mice was homogenized in 2 ml of 137 mM NaCl, 2.7 mM KCl, and 10 mM sodium phosphate (pH 7.4) for 30 s using a Polytron homogenizer. 10 μl of 5 M NaOH was added to 3 ml of the ethanolic extract, and the nonpolar retinoids were extracted using 5 ml of hexane. The extraction was repeated, and the organic phases were combined, dried under vacuum, resuspended in hexane, and examined by normal phase HPLC using a normal phase column (Beckman Ultrasphere Si 5μ, 4.6×250 mm). The elution condition was an isocratic solvent system of 10% ethyl acetate in hexane (v/v) for 25 min at a flow rate of 1.4 ml/min at 20° C. with detection at 325 and 290 nm for the detection of nonpolar retinoids and 13,14-dihydroretinoids, respectively. The aqueous phase was acidified with 40 μl of 12 N HCl, and polar retinoids were extracted with 5 ml of hexane. The extraction was repeated, and the organic phases of the polar retinoid extractions were combined, dried, resuspended in solvent composed of 80% CH3CN, 10 mM ammonium acetate, 1% acetic acid, and examined by reverse phase HPLC. Analysis of polar retinoids from tissues was done by reverse phase HPLC using a narrowbore, 120-Å, 5-μm, 2.1×250 mm, Denali C18 column (Grace-Vydac, Hesperia, Calif.). The solvent system was composed of buffer A, 80% methanol, 20% 36 mM ammonium acetate (pH 4.7 adjusted with acetic acid), and buffer B, 100% methanol. The HPLC elution conditions were […], 100% buffer A for 40 min, 100% buffer B for 10 min, and 10 min equilibration in buffer A. The elution profiles of RA and DRA were monitored using an online diode array detector set at 350 and 290 nm, respectively. The peaks were identified based on their UV-visible spectra and/or coelution with synthetic or commercially available standards. The measured area of absorbance was converted to picomoles based on a calibration of the HPLC columns using a known amount of all-trans-RA or all-trans-ROL (Sigma) and all-trans-DROL or all-trans-DRA (synthetic standards). The extraction efficiency was monitored by spiking a tissue sample with [^3H]RA (PerkinElmer Life Sciences) and monitoring the radioactivity recovered from the HPLC column. In the case of liver samples the extraction efficiency was 95% or better. Mass spectrometry analyses of synthesized retinoids and of natural retinoids purified by HPLC were performed using a Kratos profile HV-3 direct probe mass spectrometer.

[2] = Liver retinoids of Lrat-/- mice 3 h after gavage with all-trans-DROL; format: in vivo, mouse; details: 3 h post-gavage
Excerpt: as §1
(§2) Analysis of Retinoids. Liver (1 g) from retinoid gavaged or naive mice was homogenized in 2 ml of 137 mM NaCl, 2.7 mM KCl, and 10 mM sodium phosphate (pH 7.4) for 30 s using a Polytron homogenizer. 10 μl of 5 M NaOH was added to 3 ml of the ethanolic extract, and the nonpolar retinoids were extracted using 5 ml of hexane. The extraction was repeated, and the organic phases were combined, dried under vacuum, resuspended in hexane, and examined by normal phase HPLC using a normal phase column (Beckman Ultrasphere Si 5μ, 4.6×250 mm). […] The HPLC elution conditions were […], 100% buffer A for 40 min, 100% buffer B for 10 min, and 10 min equilibration in buffer A. The elution profiles of RA and DRA were monitored using an online diode array detector set at 350 and 290 nm, respectively. […] The measured area of absorbance was converted to picomoles based on a calibration of the HPLC columns using a known amount of all-trans-RA or all-trans-ROL (Sigma) and all-trans-DROL or all-trans-DRA (synthetic standards). The extraction efficiency was monitored by spiking a tissue sample with [^3H]RA (PerkinElmer Life Sciences) and monitoring the radioactivity recovered from the HPLC column. […]

[3] = Liver retinoids of Lrat-/- mice 3 h after gavage with all-trans-RA; format: in vivo, mouse; details: 3 h post-gavage
Excerpt: as §1, §2

mouse RetSat [4] = molecular target: T1, mouse RetSat (Mus musculus, UniProt Q64FW2); test: RetSat saturase activity in Tet-induced HEKK-RetSat cells; format: cell-based; details: 40 μM substrate, overnight incubation
T1 construct: expressed in transfected cells
T1 sequence (Q64FW2 26-609): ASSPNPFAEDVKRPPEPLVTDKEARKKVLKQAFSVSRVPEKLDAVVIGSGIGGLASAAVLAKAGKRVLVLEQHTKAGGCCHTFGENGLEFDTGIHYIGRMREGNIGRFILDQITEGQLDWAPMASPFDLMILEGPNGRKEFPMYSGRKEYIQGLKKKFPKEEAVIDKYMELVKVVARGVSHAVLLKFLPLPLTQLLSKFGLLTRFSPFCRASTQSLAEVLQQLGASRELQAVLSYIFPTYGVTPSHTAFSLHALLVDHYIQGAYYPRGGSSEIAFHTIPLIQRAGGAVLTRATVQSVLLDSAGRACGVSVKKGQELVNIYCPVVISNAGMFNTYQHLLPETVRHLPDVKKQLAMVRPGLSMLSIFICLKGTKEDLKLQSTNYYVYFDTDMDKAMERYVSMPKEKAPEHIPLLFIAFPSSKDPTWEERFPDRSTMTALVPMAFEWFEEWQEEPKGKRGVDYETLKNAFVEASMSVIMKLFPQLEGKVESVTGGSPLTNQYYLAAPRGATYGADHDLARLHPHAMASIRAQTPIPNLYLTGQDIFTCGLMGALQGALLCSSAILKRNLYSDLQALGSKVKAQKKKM
Procedure: Enzyme assays of RetSat and CRTISO-catalyzed reactions. For enzyme assay, cells were seeded in six-well plates and expression of RetSat or CRTISO was induced with 1 μg/ml tetracycline 48 hr prior to analysis. Substrate preparation and addition were conducted under dim red light. Retinoid substrates were purified by HPLC as described above and dissolved in N,N-dimethylformamide (DMF) to a final concentration of 4 mM. Organic extract of tangerine tomatoes was dried under a stream of argon and resuspended in DMF. The substrates were diluted in 300 μl complete media (tetracycline 1 μg/ml) to a 40 μM final concentration, overlayed on cells, and incubated overnight in the dark at 37° C. in 5% CO2 and 100% humidity. Media and cells were collected by scraping, mixed with an equal volume of methanol. For retinol and dihydroretinol analysis the methanol:water mixture was extracted with two volumes of hexane, then the organic phase was dried, resuspended in hexane, and analyzed by normal-phase HPLC. […] For carotenoid analysis the organic phase was dried and resuspended in ethanol/tetrahydrofuran (9:1) and examined by reverse-phase HPLC System I. For retinoic acid analysis the 1:1 methanol:water mixture was acidified with 0.1 volumes of 12N HCl and extracted with 1 volume of chlorofom, dried and resuspended in ethanol and examined by reverse-phase HPLC System II.

tomato CRTISO = molecular target: T2, tomato CRTISO (Solanum lycopersicum, UniProt Q8S4R4); test: CRTISO activity in transfected HEKK cells; format: cell-based; details: CRTISO-expressing cells, overnight, in the dark
T2 construct: expressed in transfected cells
T2 sequence (Q8S4R4 with tags, fused parts or gaps): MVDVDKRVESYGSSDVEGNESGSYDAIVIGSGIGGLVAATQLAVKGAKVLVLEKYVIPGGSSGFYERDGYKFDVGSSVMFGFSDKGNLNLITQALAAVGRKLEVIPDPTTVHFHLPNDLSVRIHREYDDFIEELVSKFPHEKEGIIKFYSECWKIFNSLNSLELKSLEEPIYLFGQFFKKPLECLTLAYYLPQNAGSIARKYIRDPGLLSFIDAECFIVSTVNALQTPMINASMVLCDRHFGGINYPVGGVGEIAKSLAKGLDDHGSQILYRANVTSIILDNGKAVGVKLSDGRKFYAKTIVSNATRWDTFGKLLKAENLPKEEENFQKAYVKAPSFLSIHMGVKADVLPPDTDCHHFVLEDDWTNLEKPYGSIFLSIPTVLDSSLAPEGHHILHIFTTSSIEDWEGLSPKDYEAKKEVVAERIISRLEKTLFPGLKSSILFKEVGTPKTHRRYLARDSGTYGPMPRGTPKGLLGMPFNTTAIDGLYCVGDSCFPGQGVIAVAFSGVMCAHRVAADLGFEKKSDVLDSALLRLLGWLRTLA
Procedure: 7Z,9Z,9′Z,7′Z-Tetra-cis-tycopene purification and reverse-phase HPLC analysis of carotenoids. Carotenoid extraction and analysis were performed under dim red light. One gram from the fruit of a tangerine tomato was freeze-thawed three times and extracted with 2 ml PBS, 2 ml of ethanol, and 6 ml of hexane with the aid of a douncer. The organic phase was dried and resuspended in ethanol/tetrahydrofuran (9:1), and examined by reverse-phase HPLC System I (Prontosil, 200-3-C30, 3 μm, 4.6 mm×250 mm, Bischoff Chromatography, Leonberg, Germany) with a mobile phase of 75% tert-butyl methyl ether/25% methanol and a flow rate of 1 ml/min. More than 90% of the extract consisted of 7Z,9Z,9′Z,7′Z-tetra-cis-lycopene identified based on its published UV/VIS absorption spectrum in hexane with the following characteristics: shoulder at λ=417 nm, ε=90,000 M^−1cm^−1, λmax=437 nm, ε=105,000 M−1 cm^−1, shoulder at λ=461 nm ε=70,000 M^−1cm^−1. Bradford, Anal Biochem 72:248-254, 1976.
Enzyme assays of RetSat and CRTISO-catalyzed reactions. For enzyme assay, cells were seeded in six-well plates and expression of RetSat or CRTISO was induced with 1 μg/ml tetracycline 48 hr prior to analysis. […] For retinol and dihydroretinol analysis the methanol:water mixture was extracted with two volumes of hexane, then the organic phase was dried, resuspended in hexane, and analyzed by normal-phase HPLC. […]

mouse RetSat [5] = molecular target: T1, mouse RetSat; details: earlier report, Moise et al. 2004; cited from earlier work

concentration at 3 h ([1]; 10^5 IU/kg body weight all-trans-ROL palmitate): 200 ± 8 nM
concentration at 3 h ([1]; 10^6 IU/kg body weight all-trans-ROL palmitate): 1800 nM
Level in liver after gavage with all-trans-DROL [2]: low levels
Formation in liver after gavage with all-trans-RA [3]: no evidence
SMILES: CC1=C(/C=C/C(C)=C/C=C/C(C)CO)C(C)(C)CCC1 (single isomer, unassigned) [C19-ROL, (3E,5E,7E)-2,6-dimethyl-8-(2,6,6-trimethylcyclohex-1-enyl)octa-3,5,7-trien-1-ol]

SMILES: CC(C)=CCC/C(C)=C/C=C/C(C)=C/C=C/C(C)=C/C=C/C=C(C)/C=C/C=C(C)/C=C/C=C(\C)CCC=C(C)C [7Z,9Z,9′Z,7′Z-tetra-cis-lycopene]
Saturation by RetSat (substrate activity) (mouse RetSat [4]): no difference
Conversion by CRTISO (substrate activity) (tomato CRTISO): converted

SMILES: CC1=C(/C=C/C(C)=C\C=C\C(C)=C\C(=O)O)C(C)(C)CCC1 [9-cis-RA, 9-cis-retinoic acid]
Saturation by RetSat (mouse RetSat [5]): does not saturate

Level in liver after gavage with all-trans-DROL [2]: significant levels
Formation in liver after gavage with all-trans-RA [3]: no evidence
SMILES: CC(C=CC1=C(C)C(=O)CCC1(C)C)=CC=CC(C)CC(=O)O (stereo not drawn) [all-trans-4-oxo-DRA]
